These are literature values, as cited in US20070265281A1, “Organic Compounds and Their Uses” (priority 2006, published 2007).

The series relates to HCV. Conditions: ribavirin alone.

Regarding `NC(=O)c1ncn([C@@H]2O[C@H](CO)[C@@H](O)[C@H]2O)n1` [Ribavirin, 1-β-D-ribofuranosyl-1-1,2,4-triazole-3-caroxamide], the “patients in whom serum amino transferase levels are reduced to normal” value is 40%. Besides, where the note is “patients”, the “serum levels of HCV-RNA” value is “does not lower”.
